Where two headings read alike, the source gives them in different places.
Tests used:
[1] = target: T1, High renin plasma (Canis lupus familiaris, UniProt Q6DYE7); experiment: Renin-inhibitory activity, Method II (high renin plasma of dog, inhibition of Angiotensin I formation); type: biochemical; settings: Table 2; 37°C, 4 hours, 1.25 mg/ml; read-out: Rate of inhibiting the formation of Angiotensin I determined by Method II
T1 construct: High renin plasma prepared by constriction of the renal artery of a dog anesthetized with Nembutal; from tissue; host or cells: plasma of a dog with constricted renal artery
T1 sequence (Q6DYE7 66-403): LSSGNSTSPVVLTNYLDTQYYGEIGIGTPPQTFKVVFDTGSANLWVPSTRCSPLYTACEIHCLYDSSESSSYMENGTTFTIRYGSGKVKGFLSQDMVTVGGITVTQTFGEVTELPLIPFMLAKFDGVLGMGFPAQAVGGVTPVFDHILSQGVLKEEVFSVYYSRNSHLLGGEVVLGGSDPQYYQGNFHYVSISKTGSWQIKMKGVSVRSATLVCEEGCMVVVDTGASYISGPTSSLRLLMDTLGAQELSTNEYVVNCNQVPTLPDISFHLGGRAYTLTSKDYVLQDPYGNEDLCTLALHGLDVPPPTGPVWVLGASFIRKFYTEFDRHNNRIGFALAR
Experimental: High renin plasma prepared by constriction of the renal artery of a dog anesthetized with Nembutal (the plasma which when incubated at 37°40 C. for 6 hours, yields 30 to […]. of Angiotensin I) was incubated at 37° C. for 2 to 6 hours in the same way as in Method I, and also under the same conditions in the presence of 1.25 mg/ml. of each of the test compounds.
(§1) The results are shown in Table 1 (the rate of inhibiting the formation of Angiotensin I, as determined by Method I, when the plasma was incubated at 37° C. for 2, 4 and 6 hours respectively), and Table 2 (the rate of inhibiting the formation of Angiotensin I when the plasma was incubated at 37° C. for 4 hours, with the compound concentration of 1.25 mg/ml.)

[2] = target: T2, Renin (Homo sapiens, UniProt P00797); experiment: Renin-inhibitory activity, Method I (inhibition of Angiotensin I formation, RIA); type: biochemical; settings: for inhibition at 313 µg/mL: 0.313 mg/ml; for inhibition at 625 µg/mL: 0.625 mg/ml; for inhibition at 1250 µg/mL: 1.25 mg/ml; for inhibition at 2500 µg/mL: 2.5 mg/ml
T2 sequence (P00797 67-406): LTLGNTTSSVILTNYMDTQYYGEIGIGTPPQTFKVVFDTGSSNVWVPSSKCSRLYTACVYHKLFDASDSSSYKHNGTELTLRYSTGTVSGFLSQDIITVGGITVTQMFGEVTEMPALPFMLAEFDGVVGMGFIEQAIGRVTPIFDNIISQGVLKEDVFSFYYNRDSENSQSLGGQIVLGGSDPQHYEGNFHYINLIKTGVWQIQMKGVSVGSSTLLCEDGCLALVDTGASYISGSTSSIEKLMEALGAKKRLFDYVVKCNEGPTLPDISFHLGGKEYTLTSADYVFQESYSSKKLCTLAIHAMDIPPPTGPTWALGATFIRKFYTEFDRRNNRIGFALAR
Experimental: Renin (see E. Haas et al. Circulation Research, Vol. 19, p. 739, 1966 and Vol. 31, p. 65, 1972) was incubated in Angiotensinogen at 37° C. for 2 to 6 hours. Similarly, renin was incubated under the same conditions in the presence of 0.313 to 2.5 mg/ml. of each of the test compounds listed above. The amount of Angiotensin I was measured by radioimmunoassay (RIA) (E. Haber et al., J. Clin. Endocrinol., Vol. 29, p. 1349, 1969), and made the renin activity.
as §1

[3] = system: renal hypertensive rats; experiment: Antihypertensive activity in renal hypertensive rats, i.m. (Table 3); type: in vivo, rat; settings: 30 mg/kg/day i.m.
Experimental: (§2) An aqueous solution or suspension in peanut oil of each test compound as administered intramuscularly (i.m.) or orally (p.o.) at a dose of 30 to 100 mg/kg (body weight)/day once every morning over the period of 6 to 7 days.
(§3) The blood pressure of each rat was measured daily before and 5 hours after each administration. Furthermore, the blood pressure was measured every morning after drug withdrawal over a period of 3 to 6 days.
(§4) Test compounds (1)-(4) decreased the blood pressure of renal hypertensive rats with a dose of 30 mg/kg/day i.m.. […] The antihypertensive rats with a dose of 100 mg/kg/day p.o..

[4] = system: renal hypertensive rats; experiment: Antihypertensive activity in rats, p.o. (Table 4); type: in vivo, rat; settings: 100 mg/kg/day p.o.
Experimental: as §2, §3, §4

[5] = system: plasma cholesterol level; experiment: Cholesterol-lowering activity in rats (modified Greenberg method); type: in vivo, rat; settings: 100 mg/Kg oral once a day, 5 consecutive days
Experimental: The effect of each of the test compounds on the plasma cholesterol level was examined in rats according to a slightly modified form of the C. M. Greenberg et al. method described in Am. J. Physiol., Vol. 202 (1961), p. 732. Rats were treated once a day with a 100 mg/Kg oral dose for 5 consecutive days instead of 7 days.

[6] = incubating time 2 hours, read-out: Rate of inhibiting the formation of Angiotensin I
[7] = incubating time 4 hours, read-out: Rate of inhibiting the formation of Angiotensin I
[8] = incubating time 6 hours, read-out: Rate of inhibiting the formation of Angiotensin I
[9] = Table 2, 37°C, 4 hours, read-out: Rate of inhibiting the formation of Angiotensin I determined by Method I
[10] = 1st day, 0 h (immediately before administration)
[11] = 1st day, 5 hours after administration
[12] = 2nd day, 0 h (immediately before administration)
[13] = 2nd day, 5 hours after administration
[14] = 3rd day, 0 h (immediately before administration)
[15] = 3rd day, 5 hours after administration
[16] = 4th day, 0 h (immediately before administration)
[17] = 4th day, 5 hours after administration
[18] = 5th day, 0 h (immediately before administration)
[19] = 5th day, 5 hours after administration
[20] = 6th day, 0 h (immediately before administration)
[21] = 6th day, 5 hours after administration
[22] = 7th day, 0 h (immediately before administration)
[23] = 7th day, 5 hours after administration

inhibition at 1250 µg/mL [1] [%] | inhibition at 313 µg/mL [2, 6] [%] | inhibition at 313 µg/mL [2, 7] [%] | inhibition at 313 µg/mL [2, 8] [%] | inhibition at 625 µg/mL [2, 6] [%] | inhibition at 625 µg/mL [2, 7] [%] | inhibition at 625 µg/mL [2, 8] [%] | inhibition at 1250 µg/mL [2, 6] [%] | inhibition at 1250 µg/mL [2, 7] [%] | inhibition at 1250 µg/mL [2, 8] [%] | inhibition at 2500 µg/mL [2, 6] [%] | inhibition at 2500 µg/mL [2, 7] [%] | inhibition at 2500 µg/mL [2, 8] [%] | inhibition at 1250 µg/mL [2, 9] [%] | Structure (SMILES) | Changes of blood pressure after drug withdrawal ([4]; 1st day after withdrawal) [mmHg] | Changes of blood pressure [4, 10] [mmHg] | Changes of blood pressure [4, 11] | Changes of blood pressure after drug withdrawal ([4]; 2nd day after withdrawal) [mmHg] | Changes of blood pressure [4, 13] [mmHg] | Changes of blood pressure after drug withdrawal ([4]; 3rd day after withdrawal) [mmHg] | further results
59 | 25 | 27 | 22 | 50 | 45 | 47 | 75 | 78 | 80 | 93 | 100 | 100 | 78 | CCC=CCC=CCC=CCCCCCCCC(=O)NCCCOP(=O)(O)OCCN [Compound (2), 3-(Octadeca-9,12,15-trienoylamino)propylphosphoryl ethanolamine] |  |  |  |  |  |  | Changes of blood pressure after drug withdrawal ([3]; 1st day after withdrawal): -34 mmHg; Changes of blood pressure [3, 10]: 0 mmHg; Changes of blood pressure [3, 11]: -17 mmHg; Changes of blood pressure after drug withdrawal ([3]; 2nd day after withdrawal): -21 mmHg; Changes of blood pressure [3, 12]: -1 mmHg; Changes of blood pressure [3, 13]: -26 mmHg; Changes of blood pressure after drug withdrawal ([3]; 3rd day after withdrawal): -7 mmHg; Changes of blood pressure [3, 14]: -20 mmHg; Changes of blood pressure [3, 15]: -31 mmHg; Changes of blood pressure [3, 16]: -22 mmHg; Changes of blood pressure [3, 17]: -34 mmHg; Changes of blood pressure [3, 18]: -23 mmHg; Changes of blood pressure [3, 19]: -39 mmHg; Changes of blood pressure [3, 20]: -29 mmHg; Changes of blood pressure [3, 21]: -44 mmHg
56 | 0 | 33 | 40 | 50 | 50 | 53 | 75 | 80 | 80 | 100 | 93 | 92 | 78 | NCCOP(=O)(O)OCCNC(=O)COc1ccc(Oc2ccc(Cl)cc2)cc1 [Compound (5), 2-[4-(4'-chlorophenoxy)phenoxyacetylamino]ethylphosphoryl ethanolamine] | -49 | 0 | +1 mmHg | -34 | -9 | -26 | Changes of blood pressure [4, 14]: -17 mmHg; Changes of blood pressure [4, 15]: -44 mmHg; Changes of blood pressure after drug withdrawal ([4]; 4th day after withdrawal): -21 mmHg; Changes of blood pressure [4, 16]: -21 mmHg; Changes of blood pressure [4, 17]: -41 mmHg; Changes of blood pressure after drug withdrawal ([4]; 5th day after withdrawal): -15 mmHg; Changes of blood pressure [4, 18]: -34 mmHg; Changes of blood pressure [4, 19]: -43 mmHg; Changes of blood pressure after drug withdrawal ([4]; 6th day after withdrawal): -7 mmHg; Changes of blood pressure [4, 20]: -37 mmHg; Changes of blood pressure [4, 21]: -49 mmHg; Changes of blood pressure [4, 22]: -40 mmHg; Changes of blood pressure [4, 23]: -49 mmHg; Cholesterol-lowering activity [5]: 48.6%
55 | 25 | 33 | 33 | 50 | 56 | 53 | 75 | 78 | 67 | 100 | 93 | 89 | 78 | CC(Oc1ccc(Oc2ccc(Cl)cc2)cc1)C(=O)NCCOP(=O)(O)OCCN (stereo not drawn) [Compound (6), 2-{α-[4-(4'-chlorophenoxy)phenoxy]propionylamino} ethylphosphoryl ethanolamine] | -37 | 0 | -9 mmHg | -32 | -4 | -18 | Changes of blood pressure [4, 12]: +4 mmHg; Changes of blood pressure [4, 14]: -14 mmHg; Changes of blood pressure [4, 15]: -25 mmHg; Changes of blood pressure after drug withdrawal ([4]; 4th day after withdrawal): -8 mmHg; Changes of blood pressure [4, 16]: -18 mmHg; Changes of blood pressure [4, 17]: -27 mmHg; Changes of blood pressure after drug withdrawal ([4]; 5th day after withdrawal): -2 mmHg; Changes of blood pressure [4, 18]: -27 mmHg; Changes of blood pressure [4, 19]: -41 mmHg; Changes of blood pressure after drug withdrawal ([4]; 6th day after withdrawal): +1 mmHg; Changes of blood pressure [4, 20]: -34 mmHg; Changes of blood pressure [4, 21]: -47 mmHg; Changes of blood pressure [4, 22]: -36 mmHg; Changes of blood pressure [4, 23]: -51 mmHg; Cholesterol-lowering activity [5]: 48.1%

Reference: patent US3985875A, “ω-(N-acylamino)alkylphosphoryl ethanolamines, pharmaceutical compositions containing them, and their uses” (Dainippon Pharmaceutical Co., Ltd., priority 1974, dated 1976)
